Results: US5101048A, “β-D-phenylthioxylosides, their method of preparation and their use as therapeutic agents” (Fournier Industrie et Sante, priority 1988, dated 1992)

What was measured:
[1] = Venous thrombosis: venous stasis under hypercoagulation (Wessler), thrombus removed and weighed; assay type: in vivo, male Wistar rats; conditions: Rattus norvegicus, po, suspension in PEG 400, thrombosis induced 4 hours after treatment; for inhibition in vivo at 3 mg/kg: 3 mg/kg administered orally; for inhibition in vivo at 12.5 mg/kg: 12.5 mg/kg administered orally
Protocol: A venous stasis under hypercoagulation is produced according to the technique described by WESSLER et al. (J. Applied Physiol. 1959, p. 943-946). As in the technique described by J. HAUPMAN et al. (Thrombosis and Haemostasis 43(2), 1980, p. 118), the hypercoagulant used is a solution of activated factor X (Xa) supplied by Flow Laboratories (71 Knat per 12.5 ml of physiological serum).
The study is performed on unfasted male Wistar rats weighing 250 to 280 g, divided into groups of 10 animals each. The products to be tested are administered orally as a suspension in PEG 400. A thrombosis is induced 4 hours after this treatment and the thrombus formed is removed and weighed.
The results obtained at doses of 3 mg/kg or 12.5 mg/kg, administered orally, have been collated in Table II. The results obtained with the known products of the above-mentioned prior art have also been collated in this Table.

[2] = as above; assay type: in vivo, male Wistar rats; conditions: 50 mg/kg administered orally

Row | SMILES | inhibition in vivo at 3 mg/kg [1] [%] | inhibition in vivo at 12.5 mg/kg [1] [%] | % inhibition at 50 mg/kg (footnote) [2] [%]
1 | CC(=O)O[C@@H]1[C@@H](OC(C)=O)[C@H](OC(C)=O)CS[C@H]1Oc1cccc(C(C)=O)c1 [Example 25a, 3-acetylphenyl 2,3,4-tri-O-acetyl-5-thio-β-D-xylopyranoside] | 52 |  | 
2 | O[C@@H]1[C@@H](O)[C@H](Sc2ccc3ccccc3c2)SC[C@H]1O [Example 3, 2-naphthalenyl 1,5-dithio-β-D-xylopyranoside] |  | 38 | 
3 | N#Cc1cc(C#N)c(S[C@@H]2SC[C@@H](O)[C@H](O)[C@H]2O)c(C#N)c1 [Example 17, 2,4,6-tricyanophenyl 1,5-dithio-β-D-xylopyranoside] | 8 | 40 | 
4 | N#Cc1ccccc1O[C@@H]1SC[C@@H](O)[C@H](O)[C@H]1O [Example 26, 2-cyanophenyl 5-thio-β-D-xylopyranoside] | 63.5 | 96 | 
5 | CC(=O)Nc1ccc(S[C@@H]2SC[C@@H](OC(C)=O)[C@H](OC(C)=O)[C@H]2OC(C)=O)cc1 [Example 19a, 4-acetamidophenyl 2,3,4-tri-O-acetyl-1,5dithio-β-D-xylopyranoside] | 66 |  | 
6 | O=[N+]([O-])c1ccccc1S[C@@H]1SC[C@@H](O)[C@H](O)[C@H]1O [Example 7, 2-nitrophenyl 1,5-dithio-β-D-xylopyranoside] | 33 | 96.7 | 
7 | O=[N+]([O-])c1ccc(S[C@@H]2SC[C@@H](O)[C@H](O)[C@H]2O)cc1 [Example 2, 4-nitrophenyl 1,5-dithio-β-D-xylopyranoside] | 35 | 78 | 
8 | O=[N+]([O-])c1cccc(S[C@@H]2SC[C@@H](O)[C@H](O)[C@H]2O)c1 [Example 12, 3-nitrophenyl 1,5-dithio-β-D-xylopyranoside] |  | 69 | 
9 | O=C(c1ccc(S[C@@H]2SC[C@@H](O)[C@H](O)[C@H]2O)cc1)C(F)(F)F [Example 20, 4-trifluoroacetylphenyl 1,5-dithio-β-D-xylopyranoside] | 49 |  | 
10 | N#Cc1ccc(S[C@@H]2SC[C@@H](O)[C@H](O)[C@H]2O)c(C#N)c1 [Example 16, 2,4-dicyanophenyl 1,5-dithio-β-D-xylopyranoside] | 42.5 | 99.5 | 
11 | N#Cc1ccc(S[C@@H]2SC[C@@H](O)[C@H](O)[C@H]2O)cc1 [Example 1, 4-cyanophenyl 1,5-dithio-β-D-xylopyranoside] | 53 | 90 | 
12 | O[C@@H]1[C@@H](O)[C@H](Sc2ccc(C(F)(F)F)cc2)SC[C@H]1O [Example 4, 4-trifluoromethylphenyl 1,5-dithio-β-D-xylopyranoside] |  | 66 | 
13 | O[C@@H]1[C@@H](O)[C@H](Sc2ccccc2C(F)(F)F)SC[C@H]1O [Example 13, 2-trifluoromethylphenyl 1,5-dithio-β-D-xylopyranoside] |  | 23 | 
14 | O=[N+]([O-])c1ccccc1O[C@@H]1SC[C@@H](O)[C@H](O)[C@H]1O [Example 28, 2-nitrophenyl 5-thio-β-D-xylopyranoside] | 51 | 94 | 
15 | CC(=O)O[C@@H]1[C@@H](OC(C)=O)[C@H](OC(C)=O)CS[C@H]1Oc1ccc([N+](=O)[O-])cc1 [Example 23a, 4-nitrophenyl 2,3,4-tri-O-acetyl-5-thio-β-D-xylopyranoside] | 44 |  | 
16 | Nc1ccc(S[C@@H]2SC[C@@H](O)[C@H](O)[C@H]2O)cc1 [Example 18, 4-aminophenyl 1,5-dithio-β-D-xylopyranoside] | 30 | 93 | 
17 | N#Cc1ccc2cc(S[C@@H]3SC[C@@H](O)[C@H](O)[C@H]3O)ccc2c1 [Example 8, 2-(6-cyanonaphthalenyl) 1,5-dithio-β-D-xylopyranoside] | 31 | 94.7 | 
18 | N#Cc1c(O[C@@H]2SC[C@@H](O)[C@H](O)[C@H]2O)ccc2ccccc12 [Example 31, 2-(1-cyanonaphthalenyl) 5-thio-β-D-xylopyranoside] | 28 |  | 
19 | CC(=O)Nc1ccc(S[C@@H]2SC[C@@H](O)[C@H](O)[C@H]2O)cc1 [Example 19, 4-acetamidophenyl 1,5-dithio-β-D-xylopyranoside] | 61 | 93 | 
20 | CC(=O)O[C@@H]1[C@@H](OC(C)=O)[C@H](Sc2ccc(C#N)cc2)SC[C@H]1OC(C)=O [Example 1a, 4-cyanophenyl 2,3,4-tri-O-acetyl-1,5-dithio-β-D-xylopyranoside] | 30 | 90 | 

Row | SMILES | inhibition in vivo at 3 mg/kg [1] [%] | inhibition in vivo at 12.5 mg/kg [1] [%] | % inhibition at 50 mg/kg (footnote) [2] [%]
21 | N#Cc1cccc(S[C@@H]2SC[C@@H](O)[C@H](O)[C@H]2O)c1 [Example 5, 3-cyanophenyl 1,5-dithio-β-D-xylopyranoside] | 28 | 79.5 | 
22 | CC(=O)c1cccc(O[C@@H]2SC[C@@H](O)[C@H](O)[C@H]2O)c1 [Example 25, 3-acetylphenyl 5-thio-β-D-xylopyranoside] | 44.5 |  | 
23 | N#Cc1ccc(O[C@@H]2SC[C@@H](O)[C@H](O)[C@H]2O)cc1 [Example 22, 4-cyanophenyl 5-thio-β-D-xylopyranoside] | 57 |  | 
24 | CC(=O)O[C@@H]1[C@@H](OC(C)=O)[C@H](OC(C)=O)CS[C@H]1Oc1cccc(C#N)c1 [Example 27a, 3-cyanophenyl 2,3,4-tri-O-acetyl-5-thio-β-D-xylopyranoside] | 57 |  | 
25 | Nc1cccc(S[C@@H]2SC[C@@H](O)[C@H](O)[C@H]2O)c1 [Example 21, 3-aminophenyl 1,5-dithio-β-D-xylopyranoside] | 31 |  | 
26 | N#Cc1cccc(O[C@@H]2SC[C@@H](O)[C@H](O)[C@H]2O)c1 [Example 27, 3-cyanophenyl 5-thio-β-D-xylopyranoside] | 66 | 98 | 
27 | N#Cc1ccccc1S[C@@H]1SC[C@@H](O)[C@H](O)[C@H]1O [Example 6, 2-cyanophenyl 1,5-dithio-β-D-xylopyranoside] | 35 | 88.6 | 
28 | CC(=O)O[C@@H]1[C@@H](OC(C)=O)[C@H](OC(C)=O)CS[C@H]1Oc1ccc(C#N)cc1 [Example 22a, 4-cyanophenyl 2,3,4-tri-O-acetyl-5-thio-β-D-xylopyranoside] | 66 |  | 
29 | O=[N+]([O-])c1ccc(O[C@@H]2SC[C@@H](O)[C@H](O)[C@H]2O)cc1 [Example 23, 4-nitrophenyl 5-thio-β-D-xylopyranoside] | 37.5 | 94 | 
30 | N#Cc1ccc2cc(O[C@@H]3SC[C@@H](O)[C@H](O)[C@H]3O)ccc2c1 [Example 30, 2-(6-cyanonaphthalenyl) 5-thio-β-D-xylopyranoside] | 51 |  | 
31 | CC(=O)c1ccc(S[C@@H]2SC[C@@H](O)[C@H](O)[C@H]2O)cc1 [Example 11, 4-acetylphenyl 1,5-dithio-β-D-xylopyranoside] | 47 | 98.3 | 
32 | N#Cc1ccc(-c2ccc(S[C@@H]3SC[C@@H](O)[C@H](O)[C@H]3O)cc2)cc1 [Example 14, 4-(4-cyanophenyl)phenyl 1,5-dithio-β-D-xylopyranoside] | 27 | 86 | 
33 | CC(=O)O[C@@H]1[C@@H](OC(C)=O)[C@H](Sc2ccc(C#N)cc2C#N)SC[C@H]1OC(C)=O [Example 16a, 2,4-dicyanophenyl 2,3,4-tri-O-acetyl-1,5-dithio-β-D-xylopyranoside] |  | 72.8 | 
34 | COc1cc(S[C@@H]2SC[C@@H](O)[C@H](O)[C@H]2O)cc(OC)c1OC [Example 10, 3,4,5-trimethoxyphenyl 1,5-dithio-β-D-xylopyranoside] |  | 36.5 | 
35 | CC(=O)c1ccc(O[C@@H]2SC[C@@H](O)[C@H](O)[C@H]2O)cc1 [Example 24, 4-acetylphenyl 5-thio-β-D-xylopyranoside] | 55 | 100 | 
36 | CC(=O)O[C@@H]1[C@@H](OC(C)=O)[C@H](OC(C)=O)CS[C@H]1Oc1ccc2ccccc2c1C#N [Example 31a, 2-(1-cyanonaphthalenyl) 2,3,4-tri-O-acetyl-5-thio-β-D-xylopyranoside] | 44.5 |  | 
37 | COc1cc(S[C@@H]2SC[C@@H](OC(C)=O)[C@H](OC(C)=O)[C@H]2OC(C)=O)cc(OC)c1OC [Example 10a, 3,4,5-trimethoxyphenyl 2,3,4-tri-O-acetyl-1,5-dithio-β-D-xylopyranoside] |  | 62 | 
38 | CC(=O)c1ccccc1O[C@@H]1SC[C@@H](O)[C@H](O)[C@H]1O [Example 29, 2-acetylphenyl 5-thio-β-D-xylopyranoside] | 26 |  | 
39 | O[C@@H]1[C@@H](O)[C@H](Sc2ccccc2)SC[C@H]1O [Example 9, phenyl 1,5-dithio-β-D-xylopyranoside] |  | 11 | 82
